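48-hour exposure; five concentrations; linearly interpolated endpoints. GI50 is the concentration that inhibits growth by half.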 The source made the active and inactive calls. No stated cut-off is given here; in the data, active = GI50 up to about 1.1 µM and inactive = higher.
Test system: NCI/ADR-RES
Assay: NCI-60 cell line screen, 48 h

Structure (SMILES) | GI50
O=C(O)c1ccc(Cc2ccccc2C(=O)O)cc1 | > 100 µM (inactive)
COc1cc(-c2cc(O)c(-c3ccc4ccccc4n3)c(O)n2)cc(OC)c1OC | 26.9 µM (inactive)
O=C1Nc2ccccc2C1(O)Cc1ccccn1 (stereo not drawn) | > 100 µM (inactive)
Cc1ccc([C@@H]2[C@@H](C(=O)c3ccccn3)[C@H](c3ccc(C)cc3)C[C@](O)(c3ccccn3)[C@H]2C(=O)c2ccccn2)cc1 | 2.86 µM (inactive)
Cn1c(=O)cc(Nc2ccc(N)cc2)[nH]c1=O | > 100 µM (inactive)
COc1ccc(C(O)/C(=N/N)c2nc3ccc(Cl)cc3nc2O)cc1 (stereo not drawn) | > 100 µM (inactive)
CC(=O)O[C@H]1CC[C@@]2(C)C(=CC[C@@H]3[C@@H]2CC[C@](C)(c2nnc(C)o2)[C@H]3CC#N)C1 | > 100 µM (inactive)
Nc1ccc(-c2nnc(-c3c(Cl)c(Cl)c(Cl)c(Cl)c3-c3nc4cc(C(=O)c5ccccc5)ccc4[nH]3)o2)cc1 | 16 µM (inactive)
Cc1csc(NCc2ccc(Cl)cc2)n1 | 46.6 µM (inactive)
NC(=O)CO/N=C1/C(=C2/C(=O)Nc3ccccc32)Nc2ccccc21 | > 100 µM (inactive)
CC1/C=C/C=C/CC/C=C/C=C/C=C/C=C/C(OC2OC(C)C(O)C(N)C2O)CC2OC(CC(O)C(O)CCC(O)CC(O)CC(O)CC(=O)OC(C)C(C)C1O)CC(O)C2C(=O)O (stereo not drawn) | 21.3 µM (inactive)
Cc1ccc(S(=O)(=O)NC(=O)NC(C(=O)O)C(C)O)cc1 (stereo not drawn) | > 100 µM (inactive)
COc1cc(C=O)cc(/C=N/c2ccccn2)c1O | 10.8 µM (inactive)
CC(C)(C)N1NC1C1NN1C(C)(C)C (stereo not drawn) | > 100 µM (inactive)
N#CCCN(CCCN(CCCN(C(=O)Nc1ccccc1)c1ccccc1)C(=O)Nc1ccccc1)C(=O)Nc1ccccc1 | > 8.75 µM (inactive)
CC(=O)c1cc(CC2Cc3cc4c(cc3C2=O)CCC4)cc2c1CCC2 (stereo not drawn) | 26.2 µM (inactive)
CCOC(=O)c1nc2cc(C(F)(F)F)ccc2nc1Nc1ccc(Cl)c(Cl)c1 | > 100 µM (inactive)
Nc1nc2c(=O)c3ccccc3sc2s1 | 25.9 µM (inactive)
COC(=O)[C@H](Cc1ccccc1)NC(=O)N1CCCN(C(=O)N[C@@H](Cc2ccccc2)C(=O)OC)CCCN(C(=O)N[C@@H](Cc2ccccc2)C(=O)OC)CCC1 | 30.8 µM (inactive)

Structure (SMILES) | GI50
Cn1cc[n+](-c2cc(=O)n(C)c(=O)[n-]2)c1 | > 100 µM (inactive)
CCOC(=O)c1ccc(C(=O)/C(C(C)=O)=C2\CCCN2C)n1C | 83.8 µM (inactive)
COc1ccc(NC(=O)N(C)CC2(O)CCC(C(C)(C)C)CC2)cc1 (stereo not drawn) | 54.5 µM (inactive)
O=C1C([N-]S(=O)(=O)c2ccccc2)=C([n+]2ccc(Cc3ccccc3)cc2)C(=O)c2ccccc21 | 2.83 µM (inactive)
Cc1nn(-c2ccccc2)c(C)c1/C=N/N=C1\S/C(=C\c2ccc(Cl)cc2)C(=O)N1c1ccccc1 | 17.2 µM (inactive)
CNC(=O)c1ccc(C(=O)NCCCCCN(O)C(=O)CCC(=O)NCCCCCN(O)C(=O)CCC(=O)NCCCCCN(O)C(C)=O)c(O)c1O | 41.6 µM (inactive)
FC(F)(Sc1ccccc1)c1nc2ccccc2o1 | 18.6 µM (inactive)
O=C1C2=Cc3ccccc3OC2(O)Oc2cc(O)cc(O)c21 (stereo not drawn) | > 100 µM (inactive)
COc1ccc(/N=N/c2c(C)c(C#N)c(=S)n(C3OC(CO)C(O)C(O)C3O)c2C)cc1 (stereo not drawn) | > 100 µM (inactive)
COc1ccccc1C1(c2c(OC)c(=O)c2=O)SCCCS1 | 73.6 µM (inactive)
COC(=O)C/N=C1\NC(=S)N(Cc2ccc(OC)cc2)C12CCCC2 | > 100 µM (inactive)
CC1CC(c2ccccc2)Nc2nc3ccccc3n21 (stereo not drawn) | > 100 µM (inactive)
COC(=O)Nc1nc2cc(S(=O)(=O)N3CCOCC3)ccc2[nH]1 | > 100 µM (inactive)
CC12OC(=O)[C@@]3(O)CCC4C(C[C@H]5O[C@]56CC=CC(=O)[C@]46C)C45OC[C@H]6C(=O)O[C@@H]1C[C@@]6(C)[C@H](C4=O)C23O5 (stereo partly drawn) | 8.51 µM (inactive)
O=C1Nc2ccccc2/C1=C\c1c(Cl)[nH]c2ccccc12 | 0.355 µM (active)
O=C(/C=C/C=C/c1ccccc1)CCc1ccccc1 | 68.5 µM (inactive)
N=C(N)N/N=C/c1c(Cl)nc2sccn12 | 55.2 µM (inactive)
C#CCOC(=O)c1ccccc1OC(C)=O | > 100 µM (inactive)
Clc1n[nH]c2ccccc12 | > 100 µM (inactive)

Source: ChEMBL document CHEMBL1201862, “PubChem BioAssay data set” (2004)
